Biological target: T1, angiotensin II receptor (Rattus norvegicus, UniProt P25095)
T1 sequence (P25095 1-359): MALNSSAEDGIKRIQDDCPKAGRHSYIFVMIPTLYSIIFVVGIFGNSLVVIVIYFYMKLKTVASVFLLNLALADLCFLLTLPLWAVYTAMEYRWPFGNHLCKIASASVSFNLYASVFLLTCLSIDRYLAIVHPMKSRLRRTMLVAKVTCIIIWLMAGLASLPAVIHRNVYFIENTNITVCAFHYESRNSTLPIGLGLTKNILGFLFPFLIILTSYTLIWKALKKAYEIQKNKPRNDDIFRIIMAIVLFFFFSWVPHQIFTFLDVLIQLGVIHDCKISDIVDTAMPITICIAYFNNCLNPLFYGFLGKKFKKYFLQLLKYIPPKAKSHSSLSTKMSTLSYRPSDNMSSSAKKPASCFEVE
Experiment: Inhibition of binding of angiotensin II to rat smooth muscle cells (125I-Tyr4-angiotensin II)
Conditions: 125I-AII; rat aorta-derived smooth muscle cells; room temperature, one hour; read-out: IC50, inhibitory activity to the binding of angiotensin II to its receptor

Structure (SMILES) | IC50 [nM]
CCc1nc2c(C)cc(C)nc2n1Cc1ccc2nc(-c3ccccc3C(=O)O)ccc2c1 | 6.4
CCCCc1nc(Cl)c(C=O)n1Cc1ccc2nc(-c3ccccc3C(=O)O)ccc2c1 | 50
CCCCc1nc(Cl)c(CO)n1Cc1ccc2nc(-c3ccccc3C(=O)O)ccc2c1 | 0.92
CCCCc1nc(Cl)c(CO)n1Cc1ccc2nc(-c3ccccc3-c3nnn[nH]3)ccc2c1 [Example 11, {2-butyl-4-chloro-1-{[2-[2-(1H-tetrazol-5-yl)phenyl]quinolin-6-yl]methyl}-1H-imidazol-5-yl}methanol] | 2.5
CCc1nc2c(C)cc(C)nc2n1Cc1ccc2nc(-c3ccccc3C(=O)OC)ccc2c1 [Example 12, methyl 2-{6-[(2-ethyl-5,7-dimethyl-3H-imidazo-[4,5-b]pyridin-3-yl)methyl]quinolin-2-yl}benzoate] | 440
CCc1nc2c(C)cc(C)nc2n1Cc1ccc2nc(-c3ccccc3-c3nnn[nH]3)ccc2c1 [Example 15, 2-ethyl-5,7-dimethyl-3-{[2-[2-(1H-tetrazol-5-yl)phenyl]quinolin-6-yl]methyl}-3H-imidazo[4,5-b]pyridine] | 0.94
CCCCc1nc2cccnc2n1Cc1ccc2nc(-c3ccccc3C(=O)O)ccc2c1 [Example 17] | 11
CCc1nc2c(C)cc(C)nc2n1Cc1ccc2nc(-c3ccccc3-c3nnn[nH]3)cc(Cl)c2c1 [Example 21, 2-ethyl-5,7-dimethyl-3-{[4-chloro-2-[2-(1H-tetrazol-5-yl)phenyl]quinolin-6-yl]methyl}-3H-imidazo[4,5-b]pyridine] | 7.7

Source: US5478832A, “Quinoline compounds” (The Green Cross Corporation, priority 1992, dated 1995)
